≈ marks a conversion by molar mass, not a printed value. Calls of active or inactive are those of the source. The calls are words filed in the database; no cut-off is given here.
Columns and labels:
L02 [1] = assay: Anti-MASH activity in palmitate/oleate-stimulated human LO2 cells assessed as reduction in SCD mRNA level at 10 to 40 uM incubated for 24 hrs by q-PCR analysis; format: functional, cell-based; conditions: dose 10-40 µM
[2] = Cmax in overnight-fasted male Sprague-Dawley rat at 150 mg/kg, po measured up to 12 hrs by HPLC analysis; format: ADME, organism-based; conditions: in vivo
Mus musculus [3] = assay: Anti-MASH activity in HFD-fed CCl4-treated male C57BL/6 mouse assessed as reduction in collagen deposition in liver at 150 mg/kg, po qd treated for 4 weeks by Masson staining based analysis; format: functional, organism-based
[4] = Solubility in methanol incubated for 10 mins; format: physicochemical
[5] = Antioxidant activity assessed as clearing rate incubated for 30 mins under dark condition by DPPH free radical scavenging assay; format: functional
Mus musculus [6] = assay: Anti-MASH activity in HFD-fed CCl4-treated male C57BL/6 mouse assessed as reduction in collagen I in liver at 150 mg/kg, po qd treated for 4 weeks by IHC analysis; format: functional, organism-based
Mus musculus [7] = assay: Anti-MASH activity in HFD-fed CCl4-treated male C57BL/6 mouse assessed as reduction in inflammation in liver at 150 mg/kg, po qd treated for 4 weeks by H and E/Oil red O staining based analysis; format: functional, organism-based
Rattus norvegicus [8] = assay: Hepatoprotective activity in male Sprague-Dawley rat model of CCl4-induced ALI assessed as reduction in […] somatic indices at 100 mg/kg, IG qd pretreated with compound for 7 days followed by CCl4 administration after 2 hrs post-compound treatment measured after 16 hrs post-CCl4 injection; format: functional, organism-based; conditions: time 186.0 hrs
[9] = Toxicity in male Sprague-Dawley rat model of CCl4-induced ALI assessed as animal growth at 100 mg/kg, IG qd pretreated with compound for 7 days followed by CCl4 administration after 2 hrs post-compound treatment measured after 16 hrs post-CCl4 injection; format: organism-based; conditions: in vivo, po, 186 h
Hepatocyte = assay: Anti-inflammatory activity in CCl4-stimulated mouse primary hepatocytes assessed as reduction in IL-6 mRNA level at 1 uM; format: functional, cell-based
Mus musculus [10] = assay: Anti-MASH activity in HFD-fed CCl4-treated male C57BL/6 mouse assessed as reversal of hepatopancreas somatic indices at 150 mg/kg, po qd treated for 4 weeks; format: functional, organism-based
[11] = Acute toxicity in male KM mouse assessed as abnormalities in animal at 2 g/kg, po administered as single dose measured after 2 weeks; format: organism-based; conditions: in vivo, 2000 mg/kg, 336 h
Mus musculus [12] = assay: Anti-MASH activity in HFD-fed CCl4-treated male C57BL/6 mouse assessed as restoration of serum AST level at 150 mg/kg, po qd treated for 4 weeks; format: functional, organism-based
Rattus norvegicus [13] = assay: Hepatoprotective activity in male Sprague-Dawley rat model of CCl4-induced ALI assessed as restoration of SOD level at 100 mg/kg, IG qd pretreated with compound for 7 days followed by CCl4 administration after 2 hrs post-compound treatment measured after 16 hrs post-CCl4 injection; format: functional, organism-based; conditions: time 186.0 hrs
Mus musculus [14] = assay: Anti-MASH activity in HFD-fed CCl4-treated male C57BL/6 mouse assessed as reduction in hepatocyte ballooning in liver at 150 mg/kg, po qd treated for 4 weeks by H and E/Oil red O staining based analysis; format: functional, organism-based
Mus musculus [15] = assay: Anti-MASH activity in HFD-fed CCl4-treated male C57BL/6 mouse assessed as reduction in serum HDL cholesterol level at 150 mg/kg, po qd treated for 4 weeks; format: functional, organism-based
[16] = Acute toxicity in male KM mouse assessed as animal suvival at 2 g/kg, po administered as single dose measured after 2 weeks; format: organism-based; conditions: in vivo, 2000 mg/kg, 336 h
Rattus norvegicus [17] = assay: Hepatoprotective activity in male Sprague-Dawley rat model of CCl4-induced ALI assessed as restoration of serum LDH level at 100 mg/kg, IG qd pretreated with compound for 7 days followed by CCl4 administration after 2 hrs post-compound treatment measured after 16 hrs post-CCl4 injection; format: functional, organism-based; conditions: time 186.0 hrs
[18] = Toxicity in HFD-fed CCl4-treated male C57BL/6 mouse assessed as body weight loss at 150 mg/kg, po qd treated for 4 weeks; format: organism-based; conditions: in vivo, 672 h
Mus musculus [19] = assay: Anti-MASH activity in HFD-fed CCl4-treated male C57BL/6 mouse assessed as reduction in hepatic triglyceride level at 150 mg/kg, po qd treated for 4 weeks by ELISA; format: functional, organism-based
[20] = Apparent clearance during terminal phase in overnight-fasted male Sprague-Dawley rat at 150 mg/kg, po measured up to 12 hrs by HPLC analysis; format: ADME, organism-based; conditions: in vivo, read-out: CLz/F (converted)
[21] = Antioxidant activity assessed as inhibition of superoxide anion scavenging activity incubated for 5 mins in presence of pyrogallol; format: functional
[22] = Solubility in […] incubated for 10 mins; format: physicochemical
[23] = MRT (0 to infinity) in overnight-fasted male Sprague-Dawley rat at 150 mg/kg, po measured up to 12 hrs by HPLC analysis; format: ADME, organism-based; conditions: in vivo
L02 [24] = assay: Anti-MASH activity in palmitate/oleate-stimulated human LO2 cells assessed as reduction in FASN mRNA level at 10 to 40 uM incubated for 24 hrs by q-PCR analysis; format: functional, cell-based; conditions: dose 10-40 µM
Mus musculus [25] = assay: Anti-MASH activity in HFD-fed CCl4-treated male C57BL/6 mouse assessed as reversal of volume of liver at 150 mg/kg, po qd treated for 4 weeks; format: functional, organism-based
[26] = Inhibition of lipid peroxidation in egg yolk (unknown origin) preheated with compound and FeSO4 for 15 mins followed by TCA/TBA addition measured after 15 mins by absorbance based assay; format: functional, tissue-based
[27] = Inhibition of lipid peroxidation in egg yolk (unknown origin) at 100 uM preheated with compound and FeSO4 for 15 mins followed by TCA/TBA addition measured after 15 mins by absorbance based assay relative to control; format: functional, tissue-based; design: scale not given: the % may be the effect or the level left; conditions: time 30.0 min
Mus musculus [28] = assay: Anti-MASH activity in HFD-fed CCl4-treated male C57BL/6 mouse assessed as reduction in serum triglyceride level at 150 mg/kg, po qd treated for 4 weeks; format: functional, organism-based
Mus musculus [29] = assay: Anti-MASH activity in HFD-fed CCl4-treated male C57BL/6 mouse assessed as reduction in hepatic cholesterol level at 150 mg/kg, po qd treated for 4 weeks by ELISA; format: functional, organism-based
[30] = Antioxidant activity assessed as inhibition of DPPH free radical scavenging activity incubated for 30 mins under dark condition; format: functional
Rattus norvegicus [31] = assay: Hepatoprotective activity in male Sprague-Dawley rat model of CCl4-induced ALI assessed as reduction in roughened surface in liver at 100 mg/kg, IG qd pretreated with compound for 7 days followed by CCl4 administration after 2 hrs post-compound treatment measured after 16 hrs post-CCl4 injection; format: functional, organism-based; conditions: time 186.0 hrs
Rattus norvegicus [32] = assay: Hepatoprotective activity in male Sprague-Dawley rat model of CCl4-induced ALI assessed as reduction in MDA level at 100 mg/kg, IG qd pretreated with compound for 7 days followed by CCl4 administration after 2 hrs post-compound treatment measured after 16 hrs post-CCl4 injection; format: functional, organism-based; conditions: time 186.0 hrs
L02 [33] = assay: Anti-inflammatory activity in CCl4-stimulated human LO2 cells assessed as reduction in TNF-alpha mRNA level at 1 uM; format: functional, cell-based
[34] = Solubility in ethyl acetate incubated for 10 mins; format: physicochemical

With `COc1cc([C@@H]2Oc3cc([C@H]4Oc5cc(O)cc(O)c5C(=O)[C@@H]4O)ccc3OC2CS)ccc1O` (stereo not given in full) the Activity (L02 [1]) was “Active”, the Cmax [2] was 4080 ng/mL and the Activity (Mus musculus [3]) was “Active”. The solubility [4] was 913 mg/mL (≈ 1830 mM), the Activity [5] was 92.9% and the Activity (Mus musculus [6]) was “Active”. For the same molecule, the Activity (Mus musculus [7]) was “Active; Activity Was Better Than Silybin”, the Activity (Rattus norvegicus [8]) was “Active” and the Activity [9] was “Non-toxic”. For the same molecule, the Activity (Hepatocyte) was “Active”, the Activity (Mus musculus [10]) was “Active” and the Activity [11] was “Non-toxic”. For the same molecule, the Activity (Mus musculus [12]) was “Active; Activity Was Better Than Silybin”, the Activity (Rattus norvegicus [13]) was “Active; Exhibited Better Efficacy Than Silybin” and the Activity (Mus musculus [14]) was “Active; Activity Was Better Than Silybin”. For the same molecule, the Activity (Mus musculus [15]) was “Active”, the Activity [16] was “Non-toxic” and the Activity (Rattus norvegicus [17]) was “Active”. The Activity [18] was “Non-toxic”, the Activity (Mus musculus [19]) was “Active; Activity Was More Significant Than Silybin” and the CL/F [20] was 51.3 mL/min. It also gave an IC50 [21] of 28.1 µM, a solubility [22] of over 1000 mg/mL and an MRT inf [23] of 3.51 h. The Activity (L02 [24]) was “Active”, the Activity (Mus musculus [25]) was “Active; Activity Better Than Silybin” and the IC50 [26] was 41.7 µM. For the same molecule, the Activity [27] was 67%, the Activity (Mus musculus [28]) was “Active” and the Activity (Mus musculus [29]) was “Active; Activity Was More Significant Than Silybin”. The IC50 [30] was 33.4 µM, the Activity (Rattus norvegicus [31]) was “Active” and the Activity (Rattus norvegicus [32]) was “Active; Exhibited Better Efficacy Than Silybin”. The Activity (L02 [33]) was “Active” and the solubility [34] was over 1000 mg/mL.
